The values that follow come from patent EP1946778A1, “Active substance combination for the treatment of diabetes” (Laboratorios del Dr. Esteve S.A., priority 2007, dated 2008).

Data set [1] in a line: Plasma glycerol and triacylglycerol assay, female DIO Wistar rats (COMPOUND C). Format: in vivo. The settings on record: 30 mg/kg po once daily for 28 days. On the procedure:
(§1) The experiment was performed on female Wistar rats (originally in the weight range 250-300g). Animals were maintained on a reverse phase light-dark cycle (lights off for 8 h from 09.30-17.30 h) during which time the room was illuminated by red light. Animals had free access to powdered high fat diet (VRF1 plus 20% lard), ground chocolate, ground peanuts and tap water at all times. The three different diets were contained in separate glass feeding jars with aluminium lids with a 3-4 cm hole cut in it to allow access to the food. Animals were housed in pairs for twelve weeks for the induction of obesity. Animals were then housed singly in polypropylene cages with wire grid floors to enable the food intake of each rat to be recorded. Polypropylene trays with cage pads were placed beneath each cage to detect any food spillage. Animals were accustomed to these new conditions (individual housing and the wire-grid floor cages) for at least 14 days before the start of the baseline readings. […]
Plasma triacylglycerol was determined by modification of a discrete assay kit (Sigma Triglyceride determination kit, Cat No. TR0100) to a 96-well format. […]
A 2.5 mg/ml triolein equivalent glycerol standard was obtained from Sigma. […] Optical density readings were then transferred to GraphPad Prism and unknown values extrapolated from a linear regression fit to the standard curve. […]

The nature of data set [2]: Plasma leptin assay, female DIO Wistar rats (COMPOUND C). The conditions noted are these: 30 mg/kg po once daily for 28 days. Format: in vivo. The protocol:
as §1
Plasma leptin concentration was determined using Assay Designs rat leptin enzyme immunometric assay kits (Cat No. 900-015) according to the manufacturer's regular protocol. […] Optical density at 450 nm was determined using a Molecular Devices VERSAmax tunable microplate reader and readings transferred to GraphPad Prism. […]

The nature of data set [3]: Carcass composition (water, fat, protein, ash), female DIO Wistar rats (COMPOUND C). Type of data set: in vivo. The conditions noted are these: 30 mg/kg po once daily for 28 days. The protocol:
(§2) The experiment was performed on female Wistar rats (originally in the weight range 250-300g). Animals were maintained on a reverse phase light-dark cycle (lights off for 8 h from 09.30-17.30 h) during which time the room was illuminated by red light. Animals had free access to powdered high fat diet (VRF1 plus 20% lard), ground chocolate, ground peanuts and tap water at all times. The three different diets were contained in separate glass feeding jars with aluminium lids with a 3-4 cm hole cut in it to allow access to the food. Animals were housed in pairs for twelve weeks for the induction of obesity. Animals were then housed singly in polypropylene cages with wire grid floors to enable the food intake of each rat to be recorded. Polypropylene trays with cage pads were placed beneath each cage to detect any food spillage. Animals were accustomed to these new conditions (individual housing and the wire-grid floor cages) for at least 14 days before the start of the baseline readings.
Approximately a week before the start of the study, animals were weighed (to the nearest 0.1 g using an electronic top-pan balance) and allocated into 2 weight-matched treatment groups, each containing 10 animals. Following a 7 day baseline run-in period, during which the animals were dosed by the appropriate route (eg orally) once a day with vehicle (1% methylcellulose; 1 ml/kg) or the test drug, ie COMPOUND C (30 mg/kg po) once daily for 28 days.
Total ether-extractable fat in the freeze-dried samples was estimated by the Soxhlet principle using a Foss Soxtec HT2 system. The protocol employed was based on the manufacturer's recommendations for meat samples, although freeze-dried samples obviated the necessity for either a fat hydrolysis step or mixing the sample with sand to ensure efficient extraction.
Samples of approximately 1 g were accurately weighed into 26 mm x 60 mm cellulose extraction thimbles which were then plugged with approximately 0.8 g cotton wool. Sample fat was extracted into pre-weighed (including a few boiling chips) standard metal extraction cups using 70 ml of petroleum ether at 40-60°C, a circulator temperature of 115°C and a cooling flow rate of 2 l/min. A boiling stage of 25 min was employed, followed by a 40 min wash stage. A 10 min drying stage sufficed to remove ether from the extraction cups.
Percentage fat in the freeze-dried sample was calculated as follows: % fat = [100 × (final cup weight-initial cup weight)]/sample weight [formula]
Percentage fat in the original sample was calculated using the % water as follows: % fat in original sample = % fat × [(100-%water)/100] [formula]
Total protein in the freeze-dried samples was estimated using the Kjeldahl principle. A micro-Kjeldahl procedure was performed using a Foss 2012 digestion block and a Foss 2200 distilling unit. The protocol used was based on the manufacturer's recommendations for meat samples.
Approximately 0.3 g of freeze-dried sample was accurately weighed into 100 ml digestion tubes (Foss UK Ltd) in racks of 12 tubes. Each rack included at least one blank tube to determine a reagent blank. To each tube was added two Kjeltabs CQ and one Antifoam S tablet followed by 10 ml of 98% sulphuric acid. Samples were digested at 420°C for 1 h to convert protein into ammonium sulphate. Once tubes had cooled, free ammonia was liberated by the addition of an excess of 40% NaOH and steam distilled into 30 ml of 4% boric acid indicator solution. Ammonia was then determined by titration against volumetric grade 0.1 M HCl using a Brand 25 ml digital burette. Nitrogen and protein content of the samples were calculated as follows: % nitrogen = [(sample titration-blank titration) × 0.1401]/sample weight(g)%protein = % nitrogen × 6.25 [formula]
Total ash in the freeze-dried samples was estimated by determining the non-combustible ash remaining after firing samples at high temperatures using a Carbolite OAF 11/1 muffle furnace. […]

The nature of data set [4]: Plasma glycerol and triacylglycerol assay, female DIO Wistar rats (COMPOUND A, COMPOUND B). Type of data set: in vivo. The settings on record: obese female Wistar rats; for reduction of plasma concentrations of triacylglycerol / reduction of plasma glycerol levels: 30 mg/kg po once daily for 28 days, vs vehicle. On the procedure:
as §2, with “250-300 g). The rats were housed in pairs in polypropylene cages with solid floors and sawdust bedding at a temperature of 21±4°C and 55±20% humidity.” for “250-300g).”, “aluminum” for “aluminium”
Approximately a week before the start of the study, animals were weighed (to the nearest 0.1 g using an electronic top-pan balance) and allocated into 3 weight-matched treatment groups, each containing 9-10 animals. Following a 7 day baseline run-in period, during which the animals were dosed by the appropriate route (eg orally) once a day with vehicle (0.5% hydroxy-propyl-methylcellulose [HPMC]; 1 ml/kg) or the test drug, ie COMPOUND A (10mg and 30 mg/kg po) and COMPOUND B (10 mg and 30 mg/kg po) once daily for 28 days.
Terminal blood samples via cardiac puncture were taken from the animals immediately after death into Sarstedt 4.5 ml lithium-heparin tubes (Cat No. 32.331). Tubes were then centrifuged at 1,500 g for 5 minutes at 4°C and the plasma removed and immediately frozen on dry ice (as 3 aliquots per sample in sealed Eppendorf tubes). Plasma samples were stored at -75°C until required for analysis. All determinations were performed on plasma samples that had been thawed only once.
Plasma triacylglycerol was determined by modification of a discrete assay kit (Sigma Triglyceride determination kit, Cat No. TR0100) to a 96-well format. The kit actually determines liberated glycerol following enzymic hydrolysis of triacylglycerol to free fatty acids and glycerol (1 mole glycerol per mole of triacylglycerol). For this reason, correction for the glycerol concentration originally present in the plasma is required. Plasma samples were, therefore, assayed in the absence (free plasma glycerol) or presence (total triacylglycerol) of lipoprotein lipase. Subtraction of free glycerol from total triacylglycerol concentration then derives the true triacylglycerol concentration.
A 2.5 mg/ml triolein equivalent glycerol standard was obtained from Sigma. The supplied Sigma mM conversion factor for this batch was 1.13 (ie 2.83 mM glycerol). A 10 mg/ml glycerol stock solution was prepared in saline and then diluted in saline to create a series of standard concentrations from 0.218 to 4.34 mM. Standards and plasma samples (undiluted) were pipetted into the 96-well plates as 10 µl additions in duplicate. Assay plates and reagents were preheated at 37°C and the reaction started by adding 200 µl of either the glycerol or total triacylglycerol reagent (reconstituted as per manufacturer's protocol) followed by incubation at 37°C for 5 minutes after which optical density at 540 nm was determined using a Molecular Devices VERSAmax tunable microplate reader. Optical density readings were then transferred to GraphPad Prism and unknown values extrapolated from a linear regression fit to the standard curve. The assay was linear up to the highest glycerol standard employed (4.34 mM). Subtraction of the glycerol concentration in the plasma samples from the total triacylglycerol concentration derived the true triacylglycerol concentration.

Data set [5] can be described thus: Feeding study in female DIO Wistar rats (COMPOUND A, COMPOUND B): body weight and food intake. Format: in vivo. The conditions noted are these: dietary-induced obese female Wistar rats; 10 mg/kg po once daily; end of the 28 day drug treatment period. On the procedure: as §2, with “250-300 g). The rats were housed in pairs in polypropylene cages with solid floors and sawdust bedding at a temperature of 21±4°C and 55±20% humidity.” for “250-300g).”, “aluminum” for “aluminium”
Approximately a week before the start of the study, animals were weighed (to the nearest 0.1 g using an electronic top-pan balance) and allocated into 3 weight-matched treatment groups, each containing 9-10 animals. […]
Food intake and body weight were measured once daily. […]

The nature of data set [6]: Plasma NEFA assay, female DIO Wistar rats (COMPOUND A, COMPOUND B). Type of data set: in vivo. The settings on record: obese female Wistar rats; 30 mg/kg po once daily for 28 days. On the procedure:
as §1, with “250-300 g). The rats were housed in pairs in polypropylene cages with solid floors and sawdust bedding at a temperature of 21±4°C and 55±20% humidity.” for “250-300g).”, “aluminum” for “aluminium”, “Animals were housed in pairs for twelve weeks for the induction of obesity.” left out, “Polypropylene trays with cage pads were placed beneath each cage to detect any food spillage.” left out
Non-esterified (or free) fatty acids (NEFA) were determined by modification of a commercial clinical analyser assay kit (Wako NEFA C ACS-ACOD method) to a 96-well format. […] After exactly 10 minutes, 150 µl of reagent B was added and the plate incubated for a further 10 minutes after which optical density at 540 nm was determined using a Molecular Devices VERSAmax tunable microplate reader. […]

Data set [7] is described as follows: Plasma leptin assay, female DIO Wistar rats (COMPOUND A, COMPOUND B). Format: in vivo. The settings on record: obese female Wistar rats. On the procedure:
as §1, with “250-300 g). The rats were housed in pairs in polypropylene cages with solid floors and sawdust bedding at a temperature of 21±4°C and 55±20% humidity.” for “250-300g).”, “aluminum” for “aluminium”, “Polypropylene trays with cage pads were placed beneath each cage to detect any food spillage.” left out
Plasma leptin concentration was determined using Assay Designs rat leptin enzyme immunometric assay kits (Cat No. 900-015) according to the manufacturer's regular protocol. […]
Optical density at 450 nm was determined using a Molecular Devices VERSAmax tunable microplate reader and readings transferred to GraphPad Prism. […]

The conditions of data set [8]: olanzapine treatment of patients; literature; cited from earlier work.
[9] abbreviates: 10 mg/kg po once daily for 28 days.

In the case of `O=C(NN1CCCCC1)C1=NN(c2ccc(Cl)cc2Cl)C(c2ccc(Cl)cc2)C1` (racemic) [COMPOUND C, (rac)-N-piperidinyl-5-(4-chlorophenyl)-1-(2,4-dichlorophenyl)-4,5-dihydro-1H-pyrazole-3-carboxamide], in data set [1], the “reduction of plasma glycerol levels compared to the vehicle-treated control group” value stood at 23.4% and the “reduction of triacylglycerol levels compared to the vehicle-treated control group” value amounted to 37.2%. Besides, in data set [2], the “plasma leptin concentrations, change compared to the vehicle-treated control group” value is -48.2%. Further, in data set [3], the “decrease in absolute body fat compared to the vehicle-treated control group” value was 57.7 g, the “decrease in body fat as share of the total weight-loss observed” value came out at 79.3%, the “decrease in fat mass compared to the vehicle-treated control group” value is 36.9% and the “reduction of total carcass water compared to the vehicle-treated control” value was determined as 11.8 g. Besides, in data set [3] (vehicle 2.77%), the percentage ash content turned out to be 3.26%. Moreover, the percentage protein content in data set [3] (vehicle 15.5%) was found to be 17.1%. Further, the “fat content as a percentage of carcass weight” value in data set [3] (vehicle 31.9%) came out at 24.2%. Besides, the “percentage water content of the carcasses” value in data set [3] (vehicle 49.0%) stood at 54.3%. Also, the “mean body fat mass” value in data set [3] (vehicle 156.3 g) was determined as 98.6 g. In addition, in data set [3] (vs vehicle (473.0 g)), the “reduction of final carcass weight” value was determined as 72.8 g.

Regarding `O=C(NN1CCCCC1)C1=NN(c2ccc(Cl)cc2Cl)[C@@H](c2ccc(Cl)cc2)C1` [COMPOUND A, (R)-N-piperidinyl-5-(4-chlorophenyl)-1-(2,4-dichlorophenyl)-4,5-dihydro-1H-pyrazole-3-carboxamide], in data set [4] (setting [9]), the “plasma glycerol levels, effect vs vehicle” value is on record as “no significant effect” and the “plasma triacylglycerol concentrations, effect vs vehicle” value is given as “no significant effect”. Also, in data set [4], the “reduction of plasma concentrations of triacylglycerol” value is given as 42.0% and the “reduction of plasma glycerol levels” value was 33.6%.

Take `O=C(NN1CCCCC1)C1=NN(c2ccc(Cl)cc2Cl)[C@H](c2ccc(Cl)cc2)C1` [COMPOUND B, (S)-N-piperidinyl-5-(4-chlorophenyl)-1-(2,4-dichlorophenyl)-4,5-dihydro-1H-pyrazole-3-carboxamide]: in data set [5], the “body weights lower than those of the vehicle-treated controls” value came to 4.0%. In addition, the “decrease of plasma NEFA levels compared to the vehicle-treated control group” value in data set [6] was found to be 24.4%. In data set [4], the “reduction of plasma concentrations of triacylglycerol” value is listed as 52.1% and the “reduction of plasma glycerol levels” value came out at 38.9%. In data set [7] (setting [9]), the “decrease of plasma leptin levels compared to the vehicle-treated control group” value is given as 13.7%. The “decrease of plasma leptin levels compared to the vehicle-treated control group” value in data set [7] (30 mg/kg po once daily for 28 days) stood at 26.2%.

Turning to `Cc1cc2c(s1)Nc1ccccc1N=C2N1CCN(C)CC1` [olanzapine], in data set [8], the “mean increase in body weight” value is recorded as ~ 5 kg.
